Test results published in PubChem BioAssay AID1259407 (Chemical Carcinogenesis Research Information System (CCRIS), 2018).
Calls of active or inactive are those of the source. No rule for the calls is given here.

Tested on: CCRIS mutagenicity, Ames/micronucleus/aberration tests
Test: CCRIS mutagenicity studies
[1] = Test System: AMES SALMONELLA TYPHIMURIUM, Strain/Indicator: TA98, Metabolic Activation: NONE, Method: STANDARD PLATE
[2] = Test System: AMES SALMONELLA TYPHIMURIUM, Strain/Indicator: TA98, Metabolic Activation: RAT, LIVER, S-9, AROCLOR 1254, Method: STANDARD PLATE
[3] = Test System: AMES SALMONELLA TYPHIMURIUM, Strain/Indicator: TA100, Metabolic Activation: NONE, Method: STANDARD PLATE
[4] = Test System: AMES SALMONELLA TYPHIMURIUM, Strain/Indicator: TA100, Metabolic Activation: RAT, LIVER, S-9, AROCLOR 1254, Method: STANDARD PLATE
[5] = Test System: AMES SALMONELLA TYPHIMURIUM, Strain/Indicator: TA1535, Metabolic Activation: NONE, Method: STANDARD PLATE
[6] = Test System: AMES SALMONELLA TYPHIMURIUM, Strain/Indicator: TA1535, Metabolic Activation: RAT, LIVER, S-9, AROCLOR 1254, Method: STANDARD PLATE
[7] = Test System: AMES SALMONELLA TYPHIMURIUM, Strain/Indicator: TA1537, Metabolic Activation: NONE, Method: STANDARD PLATE
[8] = Test System: AMES SALMONELLA TYPHIMURIUM, Strain/Indicator: TA1537, Metabolic Activation: RAT, LIVER, S-9, AROCLOR 1254, Method: STANDARD PLATE
[9] = Test System: AMES SALMONELLA TYPHIMURIUM, Strain/Indicator: TA1538, Metabolic Activation: RAT, LIVER, S-9, AROCLOR 1254, Method: STANDARD PLATE
[10] = Test System: AMES SALMONELLA TYPHIMURIUM, Strain/Indicator: TA1538, Metabolic Activation: NONE, Method: STANDARD PLATE

In the case of `[O-]/[N+](=N\O)c1ccccc1`, the mutagenic call (Test System: AMES SALMONELLA TYPHIMURIUM, Strain/Indicator: TA98, Metabolic Activation: HAMSTER, LIVER, S-9, AROCLOR 1254, Method: STANDARD PLATE) is reported as “inactive; negative”, the mutagenic call (Test System: AMES SALMONELLA TYPHIMURIUM, Strain/Indicator: TA98, Metabolic Activation: MOUSE, LIVER, S-9, AROCLOR 1254, Method: STANDARD PLATE) is reported as “inactive; negative” and the mutagenic call (Test System: AMES SALMONELLA TYPHIMURIUM, Strain/Indicator: TA98, Metabolic Activation: MOUSE, LIVER, S-9, Method: STANDARD PLATE) is reported as “inactive; negative”. For the same compound, the mutagenic call [1] was “inactive; negative”, the mutagenic call [2] was “inactive; negative” and the mutagenic call (Test System: AMES SALMONELLA TYPHIMURIUM, Strain/Indicator: TA98, Metabolic Activation: RAT, LIVER, S-9, Method: STANDARD PLATE) was “inactive; negative”. The mutagenic call (Test System: AMES SALMONELLA TYPHIMURIUM, Strain/Indicator: TA100, Metabolic Activation: HAMSTER, LIVER, S-9, AROCLOR 1254, Method: STANDARD PLATE) was “inactive; negative”, the mutagenic call (Test System: AMES SALMONELLA TYPHIMURIUM, Strain/Indicator: TA100, Metabolic Activation: HAMSTER, LIVER, S-9, Method: STANDARD PLATE) was “inactive; negative” and the mutagenic call (Test System: AMES SALMONELLA TYPHIMURIUM, Strain/Indicator: TA100, Metabolic Activation: MOUSE, LIVER, S-9, AROCLOR 1254, Method: STANDARD PLATE) was “inactive; negative”. For the same compound, the mutagenic call (Test System: AMES SALMONELLA TYPHIMURIUM, Strain/Indicator: TA100, Metabolic Activation: MOUSE, LIVER, S-9, Method: STANDARD PLATE) was “inactive; negative”, the mutagenic call [3] was “inactive; negative” and the mutagenic call [4] was “inactive; negative”. For the same compound, the mutagenic call (Test System: AMES SALMONELLA TYPHIMURIUM, Strain/Indicator: TA100, Metabolic Activation: RAT, LIVER, S-9, Method: STANDARD PLATE) was “inactive; negative”, the mutagenic call (Test System: AMES SALMONELLA TYPHIMURIUM, Strain/Indicator: TA1535, Metabolic Activation: HAMSTER, LIVER, S-9, AROCLOR 1254, Method: STANDARD PLATE) was “inactive; negative” and the mutagenic call (Test System: AMES SALMONELLA TYPHIMURIUM, Strain/Indicator: TA1535, Metabolic Activation: HAMSTER, LIVER, S-9, Method: STANDARD PLATE) was “inactive; negative”. The mutagenic call (Test System: AMES SALMONELLA TYPHIMURIUM, Strain/Indicator: TA1535, Metabolic Activation: MOUSE, LIVER, S-9, AROCLOR 1254, Method: STANDARD PLATE) was “inactive; negative”, the mutagenic call (Test System: AMES SALMONELLA TYPHIMURIUM, Strain/Indicator: TA1535, Metabolic Activation: MOUSE, LIVER, S-9, Method: STANDARD PLATE) was “inactive; negative” and the mutagenic call [5] was “inactive; negative”. For the same compound, the mutagenic call [6] was “inactive; negative”, the mutagenic call (Test System: AMES SALMONELLA TYPHIMURIUM, Strain/Indicator: TA1535, Metabolic Activation: RAT, LIVER, S-9, Method: STANDARD PLATE) was “inactive; negative” and the mutagenic call (Test System: AMES SALMONELLA TYPHIMURIUM, Strain/Indicator: TA1537, Metabolic Activation: HAMSTER, LIVER, S-9, AROCLOR 1254, Method: STANDARD PLATE) was “inactive; negative”. For the same compound, the mutagenic call (Test System: AMES SALMONELLA TYPHIMURIUM, Strain/Indicator: TA1537, Metabolic Activation: HAMSTER, LIVER, S-9, Method: STANDARD PLATE) was “inactive; negative”, the mutagenic call (Test System: AMES SALMONELLA TYPHIMURIUM, Strain/Indicator: TA1537, Metabolic Activation: MOUSE, LIVER, S-9, AROCLOR 1254, Method: STANDARD PLATE) was “inactive; negative” and the mutagenic call (Test System: AMES SALMONELLA TYPHIMURIUM, Strain/Indicator: TA1537, Metabolic Activation: MOUSE, LIVER, S-9, Method: STANDARD PLATE) was “inactive; negative”. The mutagenic call [7] was “inactive; negative”, the mutagenic call [8] was “inactive; negative” and the mutagenic call (Test System: AMES SALMONELLA TYPHIMURIUM, Strain/Indicator: TA1537, Metabolic Activation: RAT, LIVER, S-9, Method: STANDARD PLATE) was “inactive; negative”. The mutagenic call (Test System: AMES SALMONELLA TYPHIMURIUM, Strain/Indicator: TA1538, Metabolic Activation: HAMSTER, LIVER, S-9, AROCLOR 1254, Method: STANDARD PLATE) was “inactive; negative”, the mutagenic call (Test System: AMES SALMONELLA TYPHIMURIUM, Strain/Indicator: TA1538, Metabolic Activation: HAMSTER, LIVER, S-9, Method: STANDARD PLATE) was “inactive; negative” and the mutagenic call [9] was “inactive; negative”. For the same compound, the mutagenic call (Test System: E. COLI, Strain/Indicator: WP2 UVRA, Metabolic Activation: HAMSTER, LIVER, S-9, Method: STANDARD PLATE) was “inactive; negative”, the mutagenic call (Test System: E. COLI, Strain/Indicator: WP2 UVRA, Metabolic Activation: MOUSE, LIVER, S-9, AROCLOR 1254, Method: STANDARD PLATE) was “inactive; negative” and the mutagenic call (Test System: E. COLI, Strain/Indicator: WP2 UVRA, Metabolic Activation: MOUSE, LIVER, S-9, Method: STANDARD PLATE) was “inactive; negative”. For the same compound, the mutagenic call (Test System: E. COLI, Strain/Indicator: WP2 UVRA, Metabolic Activation: NONE, Method: STANDARD PLATE) was “inactive; negative” and the mutagenic call (Test System: E. COLI, Strain/Indicator: WP2 UVRA, Metabolic Activation: RAT, LIVER, S-9, Method: STANDARD PLATE) was “inactive; negative”.

`C1CSCCO1` was tested, and the mutagenic call [1] was “inactive; negative”, the mutagenic call (Test System: AMES SALMONELLA TYPHIMURIUM, Strain/Indicator: TA98, Metabolic Activation: S-9, Method: STANDARD PLATE) was “inactive; negative” and the mutagenic call [3] was “inactive; negative”. The mutagenic call (Test System: AMES SALMONELLA TYPHIMURIUM, Strain/Indicator: TA100, Metabolic Activation: S-9, Method: STANDARD PLATE) was “inactive; negative”, the mutagenic call [5] was “inactive; negative” and the mutagenic call (Test System: AMES SALMONELLA TYPHIMURIUM, Strain/Indicator: TA1535, Metabolic Activation: S-9, Method: STANDARD PLATE) was “inactive; negative”. The mutagenic call [7] was “inactive; negative”, the mutagenic call (Test System: AMES SALMONELLA TYPHIMURIUM, Strain/Indicator: TA1537, Metabolic Activation: S-9, Method: STANDARD PLATE) was “inactive; negative” and the mutagenic call [10] was “inactive; negative”. For the same compound, the mutagenic call (Test System: AMES SALMONELLA TYPHIMURIUM, Strain/Indicator: TA1538, Metabolic Activation: S-9, Method: STANDARD PLATE) was “inactive; negative”.

For `CC1(C)CCCC(C)(C)N1[O]`, the mutagenic call [1] was “inactive; negative”, the mutagenic call [3] was “inactive; negative” and the mutagenic call (Test System: AMES SALMONELLA TYPHIMURIUM, Strain/Indicator: TA102, Metabolic Activation: NONE, Method: STANDARD PLATE) was “inactive; negative”.

`COc1ccc2c(c1)-c1nccc3cc(OC)c(OC)c(c13)C2=O` was tested, and the mutagenic call (Test System: AMES SALMONELLA TYPHIMURIUM, Strain/Indicator: TA98, Metabolic Activation: RAT, LIVER, S-9, PHENOBARBITAL AND BETA-NAPHTHOFLAVONE, Method: PREINCUBATION) was “active; positive”.

For `Cc1ccc2nc3c(c4c(c5ccccc53)O4)c(C)c2c1`, the mutagenic call [3] was “active; positive” and the mutagenic call [4] was “inactive; negative”.

In the case of `CCCC(=O)OCc1ccc([N+](=O)[O-])cc1`, the mutagenic call (Test System: AMES SALMONELLA TYPHIMURIUM, Strain/Indicator: TA98, Metabolic Activation: NONE, Method: PREINCUBATION) is reported as “inactive; negative”, the mutagenic call (Test System: AMES SALMONELLA TYPHIMURIUM, Strain/Indicator: TA100(NR), Metabolic Activation: NONE, Method: PREINCUBATION) is reported as “inactive; negative” and the mutagenic call (Test System: AMES SALMONELLA TYPHIMURIUM, Strain/Indicator: TA100, Metabolic Activation: NONE, Method: PREINCUBATION) is reported as “active; positive”. For the same compound, the mutagenic call (Test System: AMES SALMONELLA TYPHIMURIUM, Strain/Indicator: TA100, Metabolic Activation: RAT, LIVER, S-9, AROCLOR 1254, Method: PREINCUBATION) was “active; positive”.

In the case of `CCCCCCCCCCCCOC(=O)CCSCCC(=O)OCCCCCCCCCCCC`, the mutagenic call [1] is reported as “inactive; negative”, the mutagenic call [2] is reported as “inactive; negative” and the mutagenic call [3] is reported as “inactive; negative”. The mutagenic call [4] was “inactive; negative”, the mutagenic call [5] was “inactive; negative” and the mutagenic call [6] was “inactive; negative”. For the same compound, the mutagenic call [7] was “inactive; negative”, the mutagenic call [8] was “inactive; negative” and the mutagenic call [10] was “inactive; negative”. For the same compound, the mutagenic call [9] was “inactive; negative”, the mutagenic call (Test System: E. COLI, Strain/Indicator: WP2, Metabolic Activation: NONE, Method: STANDARD PLATE) was “inactive; negative” and the mutagenic call (Test System: E. COLI, Strain/Indicator: WP2, Metabolic Activation: RAT, LIVER, S-9, AROCLOR 1254, Method: STANDARD PLATE) was “inactive; negative”.
